Patent publication US8455665B2, “3-phenoxymethylpyrrolidine compounds” (Theravance, Inc., priority 2009, dated 2013)

Columns and labels:
SERT and NET = conditions: cited from earlier work
SERT [1] = biological target: T1, SERT (Homo sapiens, UniProt P31645); experiment: hSERT membrane radioligand binding assay (3H-citalopram); set-up: expressed in transfected cells; host or cells: HEK-293; conditions: hSERT membranes (HEK-293), 1.0 nM 3H-citalopram; read-out: SERT pKi (converted)
Method in brief: (§1)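 HEK-293 membranes stably expressing hNET or hSERT; inhibition of ³H-nisoxetine (hNET) or ³H-citalopram (hSERT) binding in 50 mM Tris-HCl, 120 mM NaCl, 5 mM KCl, pH 7.4, 60 min at 22 °C. Filtration, scintillation counting; nonspecific with 1 μM desipramine (NET) or 1 μM duloxetine (SERT). pKi via Cheng-Prusoff from IC50 and radioligand Kd.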

SERT [2] = biological target: T1, SERT; experiment: hSERT neurotransmitter uptake assay (3H-5-HT); assay type: cell-based; set-up: expressed in transfected cells; host or cells: HEK-293; conditions: serotonin reuptake inhibition, HEK-293 hSERT cells, 3H-5-HT (no asterisk); read-out: SERT pIC50 (converted)
Method: (§2) Neurotransmitter uptake assays were used to measure inhibition of ^3H-serotonin (^3H-5-HT), ^3H-norepinephrine (^3H-NE), and ^3H-dopamine (^3H-DA) uptake into cells expressing the respective transporter (hSERT, hNET or hDAT) in order to determine the pIC50 values of test compounds at the transporters.
(§3) HEK-293 derived cell lines stably-transfected with hSERT, hNET, or hDAT, respectively, were grown in DMEM medium supplemented with 10% dialyzed FBS (for hSERT) or FBS (for hNET and hDAT), 100 μg/ml penicillin, 100 μg/ml streptomycin, 2 mM L-glutamine and 250 μg/ml of the aminoglycoside antibiotic G418 (for hSERT and hNET) or 800 ug/ml (for hDAT), in a 5% CO2 humidified incubator at 37° C. When cultures reached 80% confluence, the cells were washed thoroughly in PBS (without Ca^2+ and Mg^2+) and lifted with 5 mM EDTA in PBS. Cells were harvested by centrifugation at 1100 rpm for 5 minutes, washed once by resuspension in PBS, then centrifuged. The supernatant was discarded and the cell pellet resuspended, by gentle trituration, in room temperature Krebs-Ringer bicarbonate buffer containing HEPES (10 mM), CaCl2 (2.2 mM), ascorbic acid (200 μM) and pargyline (200 μM), pH 7.4. The final concentration of cells in the cell suspension was 7.5×10^4 cells/ml, 1.25×10^5 cells/ml, and 5.0×10^4 cells/ml for SERT, NET, and DAT cell lines, respectively.
(§4) Neurotransmitter uptake assays were performed in a 96-well assay plate in a total volume of 400 μl assay buffer (Krebs-Ringer bicarbonate buffer containing HEPES (10 mM), CaCl2 (2.2 mM), ascorbic acid (200 μM) and pargyline (200 μM), pH 7.4) with 1.5×10^4 and 2.5×10^4 cells, for SERT, NET, and DAT, respectively. […] Stock solutions (10 mM in DMSO) of test compound were prepared and serial dilutions prepared using 50 mM Tris-HCl, 120 mM NaCl, 5 mM KCl, pH 7.4, 0.1% BSA, 400 μM ascorbic acid. Test compounds were incubated for 30 minutes at 37° C. with the respective cells, prior to addition of radiolabeled neurotransmitter, ^3H-5-HT (20 nM final concentration), ^3H-NE (50 nM final concentration) or ^3H-DA (100 nM final concentration). Non-specific neurotransmitter uptake was determined in the presence of 2.5 μM duloxetine, 2.5 μM desipramine, or 10 uM GBR-12909 (each in Dilution Buffer) for the hSERT, hNET, or hDAT assays, respectively.
(§5) Following a 10 minute incubation, at 37° C., with radioligand, the cells were harvested by rapid filtration over a 96-well UniFilter GF/B plate, pretreated with 1% BSA, and washed 6 times with 650 μl wash buffer (ice cold PBS). Plates were dried overnight at 37° C., ˜45 μl of MicroScint™-20 (Perkin Elmer) added and incorporated radioactivity quantitated via liquid scintillation spectroscopy Inhibition curves were analyzed using GraphPad Prism Software package (GraphPad Software, Inc., San Diego, Calif.). IC50 values were generated from concentration response curves using the Sigmoidal Dose Response (variable slope) algorithm in Prism GraphPad.

NET [3] = biological target: T2, NET (Homo sapiens, UniProt P23975); experiment: hNET neurotransmitter uptake assay (3H-NE); assay type: cell-based; set-up: expressed in transfected cells; host or cells: HEK-293; conditions: norepinephrine reuptake inhibition, HEK-293 hNET cells, 3H-NE (no asterisk); read-out: NET pIC50 (converted)
Method: as §2, §3, §4, §5

NET [4] = biological target: T2, NET; experiment: hNET membrane radioligand binding assay (3H-nisoxetine); set-up: expressed in transfected cells; host or cells: HEK-293; conditions: hNET membranes (HEK-293), 1.0 nM 3H-nisoxetine; read-out: NET pKi (converted)
Method in brief: as §1

T1 sequence (P31645 whole entry): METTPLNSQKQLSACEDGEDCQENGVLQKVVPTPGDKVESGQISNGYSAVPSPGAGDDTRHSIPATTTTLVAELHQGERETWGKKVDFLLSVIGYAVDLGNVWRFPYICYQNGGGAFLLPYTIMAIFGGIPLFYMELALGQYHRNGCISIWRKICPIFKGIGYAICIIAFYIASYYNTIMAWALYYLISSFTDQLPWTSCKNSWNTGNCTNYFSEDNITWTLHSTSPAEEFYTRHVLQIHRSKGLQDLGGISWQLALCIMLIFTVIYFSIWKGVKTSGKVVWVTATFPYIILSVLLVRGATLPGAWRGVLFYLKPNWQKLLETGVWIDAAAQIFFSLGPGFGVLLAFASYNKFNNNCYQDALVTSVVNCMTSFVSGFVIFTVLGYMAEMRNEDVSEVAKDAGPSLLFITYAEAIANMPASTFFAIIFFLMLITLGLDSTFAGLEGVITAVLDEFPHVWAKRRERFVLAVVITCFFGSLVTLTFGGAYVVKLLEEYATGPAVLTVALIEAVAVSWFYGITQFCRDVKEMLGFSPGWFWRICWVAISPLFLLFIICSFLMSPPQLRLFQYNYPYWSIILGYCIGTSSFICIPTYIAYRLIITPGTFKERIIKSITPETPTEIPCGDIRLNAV
T2 sequence (P23975 whole entry): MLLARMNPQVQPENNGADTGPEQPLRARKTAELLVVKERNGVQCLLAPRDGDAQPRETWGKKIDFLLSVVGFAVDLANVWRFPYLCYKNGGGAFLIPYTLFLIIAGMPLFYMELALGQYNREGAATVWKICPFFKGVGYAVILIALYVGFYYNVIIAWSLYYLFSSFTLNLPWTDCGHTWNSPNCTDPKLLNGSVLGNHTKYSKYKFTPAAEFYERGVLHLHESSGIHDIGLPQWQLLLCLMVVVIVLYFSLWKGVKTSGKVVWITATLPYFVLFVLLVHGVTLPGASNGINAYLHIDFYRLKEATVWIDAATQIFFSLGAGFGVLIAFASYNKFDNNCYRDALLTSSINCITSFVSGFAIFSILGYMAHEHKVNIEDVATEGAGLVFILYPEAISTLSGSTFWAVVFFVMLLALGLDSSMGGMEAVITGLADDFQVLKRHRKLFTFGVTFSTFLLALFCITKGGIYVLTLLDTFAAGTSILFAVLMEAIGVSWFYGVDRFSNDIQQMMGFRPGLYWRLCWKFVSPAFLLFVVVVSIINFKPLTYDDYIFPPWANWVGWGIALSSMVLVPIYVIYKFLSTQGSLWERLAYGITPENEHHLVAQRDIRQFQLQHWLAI

Ki (SERT [1]) | IC50 (SERT [2]) | IC50 (NET [3]) | Ki (NET [4]) | SMILES | affinity for SERT relative to NET (SERT and NET; Vaishnavi et al. (2004)) | selectivity (measured as pKi) for SERT over NET (SERT and NET) | NET selective (SERT and NET)
≤ 10 nM | ≤ 10 nM | ≤ 10 nM | ≤ 10 nM | Clc1cccc(O[C@@H](C2CCOCC2)[C@@H]2CCNC2)c1Cl [Example 12, (R)-3-[(S)-(2,3-Dichlorophenoxy)(tetrahydropyran-4-yl)-methyl]pyrrolidine] | – | – | –
≤ 10 nM | ≤ 10 nM | ≤ 10 nM | ≤ 10 nM | Fc1cccc(O[C@@H](C2CCOCC2)[C@@H]2CCNC2)c1Cl [Example 13-17, (R)-3-[(S)-(2-Chloro-3-fluorophenoxy)(tetrahydropyran-4-yl)methyl]pyrrolidine] | – | – | –
≤ 10 nM | ≤ 10 nM | ≤ 10 nM | ≤ 10 nM | Fc1cccc(O[C@H](C2CCOCC2)[C@H]2CCNC2)c1Cl [Example 13-15, (S)-3-[(R)-(2-Chloro-3-fluorophenoxy)(tetrahydropyran-4-yl)methyl]pyrrolidine] | – | – | –
≤ 10 nM | ≤ 100 nM | ≤ 10 nM | ≤ 10 nM | Clc1cccc(O[C@H](C2CCOCC2)[C@@H]2CCNC2)c1Cl [Example 13-13, (R)-3-[(R)-(2,3-Dichlorophenoxy)(tetrahydropyran-4-yl)methyl]pyrrolidine] | – | – | –

Continued, compound first:

SMILES | Ki (SERT [1]) | IC50 (SERT [2]) | IC50 (NET [3]) | Ki (NET [4]) | affinity for SERT relative to NET (SERT and NET; Vaishnavi et al. (2004)) | selectivity (measured as pKi) for SERT over NET (SERT and NET) | NET selective (SERT and NET)
CNCC[C@H](Oc1cccc2ccccc12)c1cccs1 [duloxetine] | – | – | – | – | higher affinity for SERT relative to NET | 10 fold | –
CCN(CC)C(=O)C1(c2ccccc2)CC1CN (stereo not shown) [milnacipran] | – | – | – | – | – | 2.5 fold | –
CNCC[C@@H](Oc1ccccc1C)c1ccccc1 [Atomoxetine] | – | – | – | – | – | – | 10 fold
FC(F)(F)c1c(Cl)cccc1O[C@H](C1CCOCC1)[C@@H]1CCNC1 [Example 13-20, (R)-3-[(R)-(3-Chloro-2-trifluoromethylphenoxy)(tetrahydropyran-4-yl)-methyl]-pyrrolidine] | ≤ 10 nM | ≤ 100 nM | ≤ 10 nM | ≤ 10 nM | – | – | –
COCC(Oc1cccc(Cl)c1Cl)C1CCNC1 (stereo not shown) [Example 4-5, 3-[1-(2,3-Dichlorophenoxy)-2-methoxyethyl]pyrrolidine] | ≤ 10 nM | ≤ 100 nM | ≤ 10 nM | ≤ 10 nM | – | – | –
COC[C@@H](Oc1cccc(Cl)c1Cl)[C@H]1CCNC1 [Example 4-9, (S)-3-[(S)-1-(2,3-Dichlorophenoxy)-2-methoxyethyl]pyrrolidine] | ≤ 10 nM | ≤ 10 nM | ≤ 10 nM | ≤ 10 nM | – | – | –
Clc1ccccc1O[C@@H](C1CCOCC1)[C@@H]1CCNC1 [Example 13-3, (R)-3-[(S)-(2-Chlorophenoxy)(tetrahydropyran-4-yl)methyl]pyrrolidine] | ≤ 10 nM | ≤ 100 nM | ≤ 10 nM | ≤ 10 nM | – | – | –
COC[C@@H](Oc1cccc(F)c1Cl)[C@H]1CCNC1 [Example 4-13, (S)-3-[(S)-1-(2-Chloro-3-fluorophenoxy)-2-methoxyethyl]pyrrolidine] | ≤ 10 nM | ≤ 100 nM | ≤ 100 nM | ≤ 10 nM | – | – | –
